Measured values taken from patent US8835377B2, “Oral delivery of peptide pharmaceutical compositions” (UGP Therapeutics, Inc., priority 2004, dated 2014).

Experiment: Pharmacokinetics after oral capsules (sCT plus Dmt-DALDA with citric acid and lauroyl carnitine), non-enteric coated or enteric coated, in fasted beagle dogs (plasma; ELISA for sCT, HPLC-MS for Dmt-DALDA)
Assay type: in vivo
Description: A second series of tests was carried out, as noted above, using beagle dogs. […] In the experiments represented in FIGS. 2A and 2B, size 00 […] capsules were each filled with 758 mg of a powdered blend consisting of citric acid (643 mg), lauroyl carnitine (66 mg), talc (33 mg), salmon calcitonin (sCT) (13 mg) and Dmt-DALDA (2.4 mg). Half of the capsules were coated with an enteric coating solution of L30D-55, while the remaining 50% of the capsules were not coated. Four fasted dogs were each given 1 uncoated capsule, and 2 weeks later they were each given an enteric coated capsule. After administration of each capsule, samples of blood were taken at 15 minute intervals from an indwelling catheter for up to 4 hours. The blood samples were centrifuged and the resulting plasma supernatants were stored frozen at −20° C. The plasma samples were subsequently analyzed for sCT by a direct ELISA, and for Dmt-DALDA by HPLC-mass spectrometry performed as set forth in Wan, H. and Desiderio, D., Quantitation of [DMT^1] DALDA in ovine plasma by on-line liquid chromatography/quadrapole time-of-flight mass spectrometry, Rapid Communications in Mass Spectrometry, 2003; 17, 538-546, the contents of which are incorporated herein by reference.
The results summarized in FIGS. 2A and 2B as plasma peptide concentration normalized to a 1 mg dose as a function of time relative to the average Tmax, (i.e., the time at which the maximum amount of peptide was detected) indicate that both peptides, i.e., sCT and Dmt-DALDA, were detected in dogs given uncoated or enteric coated capsules. […] Table DI (below) sets forth the values upon which the curves in FIGS. 2A and 2B are based. The results are summarized in the tables as plasma peptide concentration normalized to a 1 mg dose as a function of time. Table III, moreover, provides the standard deviations for the data obtained regarding each of the test dogs, which standard deviations are also indicated in FIGS. 2A and 2B.
Table IV (below) summarizes the pharmacokinetic parameters in dogs of orally administered sCT and Dmt-DALDA when administered in non-enteric coated versus enteric coated capsules. Peptide was not detected from 1 dog in each group due to (a) Dog 3 vomiting the uncoated capsule and (b) delayed gastric emptying in Dog 2 provided with an enteric coated capsule. Cmax and AUC are as defined with regard to Table H above.

CC(C)C[C@H](NC(=O)[C@H](CCCCN)NC(=O)CNC(=O)[C@H](CC(C)C)NC(=O)[C@@H](NC(=O)[C@@H]1CSSC[C@H](N)C(=O)N[C@@H](CO)C(=O)N[C@@H](CC(N)=O)C(=O)N[C@@H](CC(C)C)C(=O)N[C@@H](CO)C(=O)N[C@@H]([C@@H](C)O)C(=O)N1)C(C)C)C(=O)N[C@@H](CO)C(=O)N[C@@H](CCC(N)=O)C(=O)N[C@@H](CCC(=O)O)C(=O)N[C@@H](CC(C)C)C(=O)N[C@@H](Cc1c[nH]cn1)C(=O)N[C@@H](CCCCN)C(=O)N[C@@H](CC(C)C)C(=O)N[C@@H](CCC(N)=O)C(=O)N[C@H](C(=O)N[C@@H](Cc1ccc(O)cc1)C(=O)N1CCC[C@H]1C(=O)N[C@@H](CCCNC(=N)N)C(=O)N[C@H](C(=O)N[C@@H](CC(N)=O)C(=O)N[C@H](C(=O)NCC(=O)N[C@@H](CO)C(=O)NCC(=O)N[C@H](C(=O)N1CCC[C@H]1C(N)=O)[C@@H](C)O)[C@@H](C)O)[C@@H](C)O)[C@@H](C)O [sCT, salmon calcitonin]
plasma peptide concentration normalized to a 1 mg dose (enteric coated capsule, Dog 3, 75 min): 0 pg/mL | plasma peptide concentration normalized to a 1 mg dose (enteric coated capsule, Dog 3, 90 min): 0 pg/mL | plasma peptide concentration normalized to a 1 mg dose (enteric coated capsule, Dog 3, 105 min): 0 pg/mL | plasma peptide concentration normalized to a 1 mg dose (enteric coated capsule, Dog 3, 120 min): 0 pg/mL | plasma peptide concentration normalized to a 1 mg dose (enteric coated capsule, Dog 3, 135 min): 13219 pg/mL | plasma peptide concentration normalized to a 1 mg dose (enteric coated capsule, Dog 3, 150 min): 10151 pg/mL | plasma peptide concentration normalized to a 1 mg dose (enteric coated capsule, Dog 3, 165 min): 4410 pg/mL | plasma peptide concentration normalized to a 1 mg dose (enteric coated capsule, Dog 3, 180 min): 2983 pg/mL | plasma peptide concentration normalized to a 1 mg dose (enteric coated capsule, Dog 3, 195 min): 1825 pg/mL | plasma peptide concentration normalized to a 1 mg dose (enteric coated capsule, Dog 4, 0 min): 0 pg/mL | plasma peptide concentration normalized to a 1 mg dose (enteric coated capsule, Dog 4, 15 min): 0 pg/mL | plasma peptide concentration normalized to a 1 mg dose (enteric coated capsule, Dog 4, 30 min): 0 pg/mL | plasma peptide concentration normalized to a 1 mg dose (enteric coated capsule, Dog 4, 45 min): 0 pg/mL | plasma peptide concentration normalized to a 1 mg dose (enteric coated capsule, Dog 4, 60 min): 0 pg/mL | plasma peptide concentration normalized to a 1 mg dose (enteric coated capsule, Dog 4, 75 min): 0 pg/mL | plasma peptide concentration normalized to a 1 mg dose (enteric coated capsule, Dog 4, 90 min): 0 pg/mL | plasma peptide concentration normalized to a 1 mg dose (enteric coated capsule, Dog 4, 105 min): 13111 pg/mL | plasma peptide concentration normalized to a 1 mg dose (enteric coated capsule, Dog 4, 120 min): 13147 pg/mL | plasma peptide concentration normalized to a 1 mg dose (enteric coated capsule, Dog 4, 135 min): 6841 pg/mL | plasma peptide concentration normalized to a 1 mg dose (enteric coated capsule, Dog 4, 150 min): 4251 pg/mL | plasma peptide concentration normalized to a 1 mg dose (enteric coated capsule, Dog 4, 165 min): 2448 pg/mL | plasma peptide concentration normalized to a 1 mg dose (enteric coated capsule, Dog 4, 180 min): 1468 pg/mL | plasma peptide concentration normalized to a 1 mg dose (enteric coated capsule, Dog 4, 195 min): 1192 pg/mL | plasma peptide concentration normalized to a 1 mg dose (non-enteric coated capsule, Dog 1, 45 min): 1343 pg/mL | plasma peptide concentration normalized to a 1 mg dose (non-enteric coated capsule, Dog 1, 60 min): 561 pg/mL | plasma peptide concentration normalized to a 1 mg dose (non-enteric coated capsule, Dog 1, 75 min): 273 pg/mL | plasma peptide concentration normalized to a 1 mg dose (non-enteric coated capsule, Dog 1, 90 min): 140 pg/mL | plasma peptide concentration normalized to a 1 mg dose (non-enteric coated capsule, Dog 1, 105 min): 121 pg/mL | plasma peptide concentration normalized to a 1 mg dose (non-enteric coated capsule, Dog 1, 120 min): 89 pg/mL | plasma peptide concentration normalized to a 1 mg dose (non-enteric coated capsule, Dog 1, 135 min): 51 pg/mL | plasma peptide concentration normalized to a 1 mg dose (non-enteric coated capsule, Dog 1, 150 min): 31 pg/mL | plasma peptide concentration normalized to a 1 mg dose (non-enteric coated capsule, Dog 1, 165 min): 23 pg/mL | plasma peptide concentration normalized to a 1 mg dose (non-enteric coated capsule, Dog 1, 180 min): 16 pg/mL | plasma peptide concentration normalized to a 1 mg dose (non-enteric coated capsule, Dog 1, 195 min): 11 pg/mL | plasma peptide concentration normalized to a 1 mg dose (non-enteric coated capsule, Dog 1, 210 min): 0 pg/mL | plasma peptide concentration normalized to a 1 mg dose (non-enteric coated capsule, Dog 1, 225 min): 0 pg/mL | plasma peptide concentration normalized to a 1 mg dose (non-enteric coated capsule, Dog 1, 240 min): 0 pg/mL | plasma peptide concentration normalized to a 1 mg dose (non-enteric coated capsule, Dog 2, 45 min): 2151 pg/mL | plasma peptide concentration normalized to a 1 mg dose (non-enteric coated capsule, Dog 2, 60 min): 897 pg/mL | plasma peptide concentration normalized to a 1 mg dose (non-enteric coated capsule, Dog 2, 75 min): 229 pg/mL | plasma peptide concentration normalized to a 1 mg dose (non-enteric coated capsule, Dog 2, 90 min): 182 pg/mL | plasma peptide concentration normalized to a 1 mg dose (non-enteric coated capsule, Dog 2, 105 min): 122 pg/mL | plasma peptide concentration normalized to a 1 mg dose (non-enteric coated capsule, Dog 2, 120 min): 69 pg/mL | plasma peptide concentration normalized to a 1 mg dose (non-enteric coated capsule, Dog 2, 135 min): 44 pg/mL | plasma peptide concentration normalized to a 1 mg dose (non-enteric coated capsule, Dog 2, 150 min): 39 pg/mL | plasma peptide concentration normalized to a 1 mg dose (non-enteric coated capsule, Dog 2, 165 min): 22 pg/mL | plasma peptide concentration normalized to a 1 mg dose (non-enteric coated capsule, Dog 2, 180 min): 15 pg/mL | plasma peptide concentration normalized to a 1 mg dose (non-enteric coated capsule, Dog 2, 195 min): 0 pg/mL | plasma peptide concentration normalized to a 1 mg dose (non-enteric coated capsule, Dog 2, 210 min): 0 pg/mL | plasma peptide concentration normalized to a 1 mg dose (non-enteric coated capsule, Dog 2, 225 min): 0 pg/mL | plasma peptide concentration normalized to a 1 mg dose (non-enteric coated capsule, Dog 2, 240 min): 0 pg/mL | plasma peptide concentration normalized to a 1 mg dose (non-enteric coated capsule, Dog 4, 45 min): 278 pg/mL | plasma peptide concentration normalized to a 1 mg dose (non-enteric coated capsule, Dog 4, 60 min): 163 pg/mL | plasma peptide concentration normalized to a 1 mg dose (non-enteric coated capsule, Dog 4, 75 min): 101 pg/mL | plasma peptide concentration normalized to a 1 mg dose (non-enteric coated capsule, Dog 4, 90 min): 69 pg/mL | plasma peptide concentration normalized to a 1 mg dose (non-enteric coated capsule, Dog 4, 105 min): 45 pg/mL | plasma peptide concentration normalized to a 1 mg dose (non-enteric coated capsule, Dog 4, 120 min): 26 pg/mL | plasma peptide concentration normalized to a 1 mg dose (non-enteric coated capsule, Dog 4, 135 min): 16 pg/mL | plasma peptide concentration normalized to a 1 mg dose (non-enteric coated capsule, Dog 4, 150 min): 12 pg/mL | plasma peptide concentration normalized to a 1 mg dose (non-enteric coated capsule, Dog 4, 165 min): 0 pg/mL | plasma peptide concentration normalized to a 1 mg dose (non-enteric coated capsule, Dog 4, 180 min): 0 pg/mL | plasma peptide concentration normalized to a 1 mg dose (non-enteric coated capsule, Dog 4, 195 min): 0 pg/mL | plasma peptide concentration normalized to a 1 mg dose (non-enteric coated capsule, Dog 4, 210 min): 0 pg/mL | plasma peptide concentration normalized to a 1 mg dose (non-enteric coated capsule, Dog 4, 225 min): 0 pg/mL | plasma peptide concentration normalized to a 1 mg dose (non-enteric coated capsule, Dog 4, 240 min): 0 pg/mL
